# Test results from publication PMC4410398, “Influence of Drug Resistance Mutations on the Activity of HIV-1 Subtypes A and B Integrases: a Comparative Study” (Acta Naturae, 2015).
# How the values were obtained:
# INB E138K = target: T1, INB E138K (Human immunodeficiency virus type 1 group M subtype B, UniProt P04585, E1285K); test: Inhibition of homologous strand transfer reaction, INB E138K; format: biochemical, HIV-1 subtype B strain HXB-2
# T1 construct: The viral enzyme integrase (IN), which catalyzes the integration; His6 (N); made in house; host or cells: Escherichia coli Rosetta (DE3), pET-15b
# INA Q148K = INA Q148K (Human immunodeficiency virus type 1 group M subtype A, UniProt P24740, Q1288K/S1259P); format: biochemical, HIV-1 subtype A strain FSU-A
# [1] = target: T2, INB (integrase of HIV-1 subtype B strain HXB-2), wild type (Human immunodeficiency virus type 1 group M subtype B, UniProt P04585); format: biochemical
# T2 construct: The viral enzyme integrase (IN), which catalyzes the integration; His6 (N); made in house; host or cells: Escherichia coli Rosetta (DE3), pET-15b
# INA E138K/Q148K = INA E138K/Q148K (Human immunodeficiency virus type 1 group M subtype A, UniProt P24740, E1278K/Q1288K/S1259P); format: biochemical, HIV-1 subtype A strain FSU-A
# [2] = target: INA (consensus integrase of HIV-1 subtype A strain FSU-A), wild type (Human immunodeficiency virus type 1 group M subtype A, UniProt P24740, S1259P); format: biochemical
# INB E138K/Q148K = target: T3, INB E138K/Q148K (Human immunodeficiency virus type 1 group M subtype B, UniProt P04585, E1285K/Q1295K); test: Inhibition of homologous strand transfer reaction, INB E138K/Q148K; format: biochemical, HIV-1 subtype B strain HXB-2
# T3 construct: The viral enzyme integrase (IN), which catalyzes the integration; His6 (N); made in house; host or cells: Escherichia coli Rosetta (DE3), pET-15b
# INB = system: INB; parameters: method as in PMID 23075516; conditions: literature value for INB; cited from earlier work
# INA G140S = INA G140S (Human immunodeficiency virus type 1 group M subtype A, UniProt P24740, G1280S/S1259P); format: biochemical, HIV-1 subtype A strain FSU-A
# INB G118R/E138K = target: T4, INB G118R/E138K (Human immunodeficiency virus type 1 group M subtype B, UniProt P04585, E1285K/G1265R); test: Inhibition of homologous strand transfer reaction, INB G118R/E138K; format: biochemical, HIV-1 subtype B strain HXB-2
# T4 construct: The viral enzyme integrase (IN), which catalyzes the integration; His6 (N); made in house; host or cells: Escherichia coli Rosetta (DE3), pET-15b
# INB Q148K = target: T5, INB Q148K (Human immunodeficiency virus type 1 group M subtype B, UniProt P04585, Q1295K); test: Inhibition of homologous strand transfer reaction, INB Q148K; format: biochemical, HIV-1 subtype B strain HXB-2
# T5 construct: The viral enzyme integrase (IN), which catalyzes the integration; His6 (N); made in house; host or cells: Escherichia coli Rosetta (DE3), pET-15b
# INB G140S = target: T6, INB G140S (Human immunodeficiency virus type 1 group M subtype B, UniProt P04585, G1287S); test: Inhibition of homologous strand transfer reaction, INB G140S; format: biochemical, HIV-1 subtype B strain HXB-2
# T6 construct: The viral enzyme integrase (IN), which catalyzes the integration; His6 (N); made in house; host or cells: Escherichia coli Rosetta (DE3), pET-15b
# INA G118R = INA G118R (Human immunodeficiency virus type 1 group M subtype A, UniProt P24740, G1258R/S1259P); format: biochemical, HIV-1 subtype A strain FSU-A
# INA G118R/E138K = INA G118R/E138K (Human immunodeficiency virus type 1 group M subtype A, UniProt P24740, E1278K/G1258R/S1259P); format: biochemical, HIV-1 subtype A strain FSU-A
# INB G118R = target: T7, INB G118R (Human immunodeficiency virus type 1 group M subtype B, UniProt P04585, G1265R); test: Inhibition of homologous strand transfer reaction, INB G118R; format: biochemical, HIV-1 subtype B strain HXB-2
# T7 construct: The viral enzyme integrase (IN), which catalyzes the integration; His6 (N); made in house; host or cells: Escherichia coli Rosetta (DE3), pET-15b
# INA E138K = INA E138K (Human immunodeficiency virus type 1 group M subtype A, UniProt P24740, E1278K/S1259P); format: biochemical, HIV-1 subtype A strain FSU-A
# INB G140S/Q148K = target: T8, INB G140S/Q148K (Human immunodeficiency virus type 1 group M subtype B, UniProt P04585, G1287S/Q1295K); test: Inhibition of homologous strand transfer reaction, INB G140S/Q148K; format: biochemical, HIV-1 subtype B strain HXB-2
# T8 construct: The viral enzyme integrase (IN), which catalyzes the integration; His6 (N); made in house; host or cells: Escherichia coli Rosetta (DE3), pET-15b
# INA G140S/Q148K = INA G140S/Q148K (Human immunodeficiency virus type 1 group M subtype A, UniProt P24740, G1280S/Q1288K/S1259P); format: biochemical, HIV-1 subtype A strain FSU-A
# [3] = system: HIV-1 subtype CRF02_A/G isolate carrying a G118R substitution in the IN gene; parameters: method as in PMID 24710029; conditions: HIV-1 subtype CRF02_A/G isolate carrying G118R in the IN gene; cited from earlier work
# [4] = system: HIV-1 subtype B (clone pNL4-3) carrying G118R; parameters: method as in PMID 24710029; conditions: cited from earlier work
# [5] = homologous strand transfer, 2 h, 100 nM IN, read-out: Inhibitory activity, IC50
smiles,measurement,setting,value
CN(C)S(=O)(=O)c1cc(O)c(O)c2c1CN(Cc1ccc(F)c(Cl)c1)C2=O [XZ-259],ratio of IC50 for mutants over wt (FC),INB E138K,1
same,IC50,INB E138K; [5],70 ± 10 nM
same,ratio of IC50 for mutants over wt (FC),INA Q148K,8.8
same,IC50,INA Q148K; [5],350 ± 100 nM
same,ratio of IC50 for mutants over wt (FC),[1],1
same,IC50,[1]; [5],65 ± 10 nM
same,ratio of IC50 for mutants over wt (FC),INA E138K/Q148K,5
same,IC50,INA E138K/Q148K; [5],200 ± 50 nM
same,ratio of IC50 for mutants over wt (FC),[2],1
same,IC50,[2]; [5],40 ± 15 nM
same,ratio of IC50 for mutants over wt (FC),INB E138K/Q148K,7.7
same,IC50,INB E138K/Q148K; [5],500 ± 200 nM
same,IC50,INB,77 nM
same,ratio of IC50 for mutants over wt (FC),INA G140S,3.8
same,IC50,INA G140S; [5],150 ± 50 nM
same,ratio of IC50 for mutants over wt (FC),INB G118R/E138K,1.2
same,IC50,INB G118R/E138K; [5],80 ± 15 nM
same,ratio of IC50 for mutants over wt (FC),INB Q148K,9.2
same,IC50,INB Q148K; [5],600 ± 100 nM
same,ratio of IC50 for mutants over wt (FC),INB G140S,2.3
same,IC50,INB G140S; [5],150 ± 50 nM
same,ratio of IC50 for mutants over wt (FC),INA G118R,1
same,IC50,INA G118R; [5],40 ± 10 nM
same,ratio of IC50 for mutants over wt (FC),INA G118R/E138K,0.75
same,IC50,INA G118R/E138K; [5],30 ± 10 nM
same,ratio of IC50 for mutants over wt (FC),INB G118R,1.2
same,IC50,INB G118R; [5],80 ± 20 nM
same,ratio of IC50 for mutants over wt (FC),INA E138K,1.25
same,IC50,INA E138K; [5],50 ± 15 nM
same,ratio of IC50 for mutants over wt (FC),INB G140S/Q148K,13
same,IC50,INB G140S/Q148K; [5],850 ± 100 nM
same,ratio of IC50 for mutants over wt (FC),INA G140S/Q148K,15
same,IC50,INA G140S/Q148K; [5],600 ± 150 nM
"C[C@@H]1CCO[C@H]2Cn3cc(C(=O)NCc4ccc(F)cc4F)c(=O)c(O)c3C(=O)N12 [DTG, dolutegravir]",FC (resistance),[3],> 100
same,FC (resistance),[4],10
